Test results published in PubChem BioAssay AID1963448 (Molecular Pharmacology Branch, DTP, NCI, 2024).
Several values for one entry are separate records, joined by “and”; a condition that tells them apart may be missing. Equal entries are not always repeated. Blank lines part the entries; values can stand above or below the compound they belong to.

System: 616215-338-R-J1-PDC complex spheroid growth, % test/control
Assay: Anticancer human tumor 616215-338-R-J1-PDC patient-derived colon adenocarcinoma cell line growth inhibition [Asc]
Conditions: for viability, T/C: stronger effect = lower value
In short: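 Stromal components (HUVEC and hMSC) are co-assembled with the cancer cells into multicellular spheroids. Drugs are then added singly or paired, at concentrations falling by half-log increments from a clinically achievable maximum, capped at 10 microM without known Cmax.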

[1] = curve of first compound, second compound 0.03 µM
[2] = curve of first compound, second compound 0.0949 µM
[3] = curve of first compound, second compound 0.3 µM
[4] = curve of first compound, second compound 0.949 µM
[5] = curve of first compound, second compound 3 µM
[6] = second compound 0.03 µM, first compound 0.000316 µM
[7] = second compound 0.03 µM, first compound 0.001 µM
[8] = second compound 0.03 µM, first compound 0.00316 µM
[9] = second compound 0.03 µM, first compound 0.01 µM
[10] = second compound 0.03 µM, first compound 0.0316 µM
[11] = second compound 0.03 µM, first compound 0.1 µM
[12] = second compound 0.0949 µM, first compound 0.000316 µM
[13] = second compound 0.0949 µM, first compound 0.001 µM
[14] = second compound 0.0949 µM, first compound 0.00316 µM
[15] = second compound 0.0949 µM, first compound 0.01 µM
[16] = second compound 0.0949 µM, first compound 0.0316 µM
[17] = second compound 0.0949 µM, first compound 0.1 µM
[18] = second compound 0.3 µM, first compound 0.000316 µM
[19] = second compound 0.3 µM, first compound 0.001 µM
[20] = second compound 0.3 µM, first compound 0.00316 µM
[21] = second compound 0.3 µM, first compound 0.01 µM
[22] = second compound 0.3 µM, first compound 0.0316 µM
[23] = second compound 0.3 µM, first compound 0.1 µM
[24] = second compound 0.949 µM, first compound 0.000316 µM
[25] = second compound 0.949 µM, first compound 0.001 µM
[26] = second compound 0.949 µM, first compound 0.00316 µM
[27] = second compound 0.949 µM, first compound 0.01 µM
[28] = second compound 0.949 µM, first compound 0.0316 µM
[29] = second compound 0.949 µM, first compound 0.1 µM
[30] = second compound 3 µM, first compound 0.000316 µM
[31] = second compound 3 µM, first compound 0.001 µM
[32] = second compound 3 µM, first compound 0.00316 µM
[33] = second compound 3 µM, first compound 0.01 µM
[34] = second compound 3 µM, first compound 0.0316 µM
[35] = second compound 3 µM, first compound 0.1 µM
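Further: spheroids exposed to agents for seven days before readout.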
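Wherever viability, T/C is given: 100% = DMSO vehicle control viability.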

IC50 [1]: > 100 nM
IC50 [2]: > 100 nM
IC50 [3]: > 100 nM
IC50 [4]: > 100 nM
IC50 [5]: > 100 nM
SMILES: NC1CCC(NC2CC2c2ccccc2)CC1 (stereo not drawn) + CCN1C(C(=O)NC23CCC(C(=O)O)(CC2)CC3)C(c2cccc(Cl)c2F)C2(C(=O)Nc3cc(Cl)ccc32)C12CCCCC2
viability, T/C [6]: 106%
viability, T/C [7]: 98.2%
viability, T/C [8]: 99.7%
viability, T/C [9]: 104%
viability, T/C [10]: 100%
viability, T/C [11]: 103%
viability, T/C [12]: 95.5%
viability, T/C [13]: 100%
viability, T/C [14]: 91.3%
viability, T/C [15]: 91.7%
viability, T/C [16]: 93.8%
viability, T/C [17]: 95.2%
viability, T/C [18]: 68.9%
viability, T/C [19]: 67.6%
viability, T/C [20]: 73%
viability, T/C [21]: 65.9%
viability, T/C [22]: 62.4%
viability, T/C [23]: 68%
viability, T/C [24]: 73.4%
viability, T/C [25]: 72.2%
viability, T/C [26]: 83.7%
viability, T/C [27]: 71.7%
viability, T/C [28]: 70.1%
viability, T/C [29]: 72.7%
viability, T/C [30]: 54.6%
viability, T/C [31]: 58.9%
viability, T/C [32]: 58.2%
viability, T/C [33]: 62.9%
viability, T/C [34]: 51%
viability, T/C [35]: 54.3%

IC50 [1]: > 100 nM
IC50 [2]: > 100 nM
IC50 [3]: > 100 nM
IC50 [4]: > 100 nM
IC50 [5]: 3.14 nM
SMILES: Cn1ncnc1[C@H]1c2n[nH]c(=O)c3cc(F)cc(c23)N[C@@H]1c1ccc(F)cc1 + CCN1C(C(=O)NC23CCC(C(=O)O)(CC2)CC3)C(c2cccc(Cl)c2F)C2(C(=O)Nc3cc(Cl)ccc32)C12CCCCC2
viability, T/C [6]: 107%
viability, T/C [7]: 103%
viability, T/C [8]: 97.8%
viability, T/C [9]: 105%
viability, T/C [10]: 92.3%
viability, T/C [11]: 85.5%
viability, T/C [12]: 99.2%
viability, T/C [13]: 95.5%
viability, T/C [14]: 89%
viability, T/C [15]: 85%
viability, T/C [16]: 81.5%
viability, T/C [17]: 75.6%
viability, T/C [18]: 69.6%
viability, T/C [19]: 70.9%
viability, T/C [20]: 67.6%
viability, T/C [21]: 56.7%
viability, T/C [22]: 58.9%
viability, T/C [23]: 61.8%
viability, T/C [24]: 65.3%
viability, T/C [25]: 66.5%
viability, T/C [26]: 67.4%
viability, T/C [27]: 56.8%
viability, T/C [28]: 57.2%
viability, T/C [29]: 61.3%
viability, T/C [30]: 50.2%
viability, T/C [31]: 55.5%
viability, T/C [32]: 49.9%
viability, T/C [33]: 46.1%
viability, T/C [34]: 47.5%
viability, T/C [35]: 48.3%

IC50 [1]: 5680 nM
IC50 [2]: 4920 nM
IC50 [3]: 3720 nM
IC50 [4]: 3830 nM
IC50 [5]: < 31.6 nM
SMILES: C=C(F)C(=O)N1CCN(c2nc(OCC3CCCN3C)nc3c2CCN(c2cccc4cccc(Cl)c24)C3)CC1CC#N (stereo not drawn) + CCN1C(C(=O)NC23CCC(C(=O)O)(CC2)CC3)C(c2cccc(Cl)c2F)C2(C(=O)Nc3cc(Cl)ccc32)C12CCCCC2
viability, T/C [10]: 106%
viability, T/C [11]: 103%
viability, T/C (second compound 0.03 µM, first compound 0.316 µM): 109%
viability, T/C (second compound 0.03 µM, first compound 1 µM): 106%
viability, T/C (second compound 0.03 µM, first compound 3.16 µM): 101%
viability, T/C (second compound 0.03 µM, first compound 10 µM): 0.87%
viability, T/C [16]: 106%
viability, T/C [17]: 96.7%
viability, T/C (second compound 0.0949 µM, first compound 0.316 µM): 99.3%
viability, T/C (second compound 0.0949 µM, first compound 1 µM): 93.4%
viability, T/C (second compound 0.0949 µM, first compound 3.16 µM): 82%
viability, T/C (second compound 0.0949 µM, first compound 10 µM): 0.4%
viability, T/C [22]: 69.9%
viability, T/C [23]: 67.9%
viability, T/C (second compound 0.3 µM, first compound 0.316 µM): 66%
viability, T/C (second compound 0.3 µM, first compound 1 µM): 65.7%
viability, T/C (second compound 0.3 µM, first compound 3.16 µM): 58.2%
viability, T/C (second compound 0.3 µM, first compound 10 µM): 0.52%
viability, T/C [28]: 62.2%
viability, T/C [29]: 65.5%
viability, T/C (second compound 0.949 µM, first compound 0.316 µM): 67.6%
viability, T/C (second compound 0.949 µM, first compound 1 µM): 63.8%
viability, T/C (second compound 0.949 µM, first compound 3.16 µM): 59.9%
viability, T/C (second compound 0.949 µM, first compound 10 µM): 0.26%
viability, T/C [34]: 48.9%
viability, T/C [35]: 48.8%
viability, T/C (second compound 3 µM, first compound 0.316 µM): 46.2%
viability, T/C (second compound 3 µM, first compound 1 µM): 45.6%
viability, T/C (second compound 3 µM, first compound 3.16 µM): 46.2%
viability, T/C (second compound 3 µM, first compound 10 µM): 0.36%

IC50 (curve of first compound, second compound 0.1 µM): > 10000 nM
IC50 (curve of first compound, second compound 0.316 µM): > 10000 nM
IC50 (curve of first compound, second compound 1 µM): 6410 nM
IC50 (curve of first compound, second compound 3.16 µM): < 31.6 nM
IC50 (curve of first compound, second compound 10 µM): < 31.6 nM
SMILES: C#Cc1c(F)ccc2cc(O)cc(-c3ncc4c(N5CC6CCC(C5)N6)nc(OCC56CCCN5CC(F)C6)nc4c3F)c12 (stereo not drawn) + Cc1c(S(C)(=O)=O)c(-c2cc(F)cc(N3CCN(c4ccc(NS(=O)(=O)c5ccc(NC(CCN6CCC(C(=O)OCCCP(=O)(O)O)CC6)CSc6ccccc6)c(S(=O)(=O)C(F)(F)F)c5)cc4)CC3)c2)c(-c2ccc(Cl)cc2)n1C(C)C
viability, T/C (second compound 0.1 µM, first compound 0.0316 µM): 92.2%
viability, T/C (second compound 0.1 µM, first compound 0.1 µM): 88.2%
viability, T/C (second compound 0.1 µM, first compound 0.316 µM): 93.3%
viability, T/C (second compound 0.1 µM, first compound 1 µM): 98.2%
viability, T/C (second compound 0.1 µM, first compound 3.16 µM): 87.5%
viability, T/C (second compound 0.1 µM, first compound 10 µM): 56.6%
viability, T/C (second compound 0.316 µM, first compound 0.0316 µM): 96.6%
viability, T/C (second compound 0.316 µM, first compound 0.1 µM): 91.9%
viability, T/C (second compound 0.316 µM, first compound 0.316 µM): 88.8%
viability, T/C (second compound 0.316 µM, first compound 1 µM): 97.4%
viability, T/C (second compound 0.316 µM, first compound 3.16 µM): 72.1%
viability, T/C (second compound 0.316 µM, first compound 10 µM): 52%
viability, T/C (second compound 1 µM, first compound 0.0316 µM): 68.8%
viability, T/C (second compound 1 µM, first compound 0.1 µM): 70%
viability, T/C (second compound 1 µM, first compound 0.316 µM): 66.8%
viability, T/C (second compound 1 µM, first compound 1 µM): 68.2%
viability, T/C (second compound 1 µM, first compound 3.16 µM): 61.1%
viability, T/C (second compound 1 µM, first compound 10 µM): 42.8%
viability, T/C (second compound 3.16 µM, first compound 0.0316 µM): 39.5%
viability, T/C (second compound 3.16 µM, first compound 0.1 µM): 38.8%
viability, T/C (second compound 3.16 µM, first compound 0.316 µM): 40.3%
viability, T/C (second compound 3.16 µM, first compound 1 µM): 39.6%
viability, T/C (second compound 3.16 µM, first compound 3.16 µM): 34.1%
viability, T/C (second compound 3.16 µM, first compound 10 µM): 9.96%
viability, T/C (second compound 10 µM, first compound 0.0316 µM): 29.7%
viability, T/C (second compound 10 µM, first compound 0.1 µM): 25.5%
viability, T/C (second compound 10 µM, first compound 0.316 µM): 29.8%
viability, T/C (second compound 10 µM, first compound 1 µM): 21.8%
viability, T/C (second compound 10 µM, first compound 3.16 µM): 10.8%
viability, T/C (second compound 10 µM, first compound 10 µM): 0.92%

IC50 (curve of compound): 965 nM and > 3000 nM
SMILES: CCN1C(C(=O)NC23CCC(C(=O)O)(CC2)CC3)C(c2cccc(Cl)c2F)C2(C(=O)Nc3cc(Cl)ccc32)C12CCCCC2 (stereo not drawn)
viability, T/C (compound 0.00949 µM): 106% and 100%
viability, T/C (compound 0.03 µM): 96.6% [middle of 15 runs]
